This note sets out measurements from PubChem BioAssay (NCI).

Among the test systems are MDA-N; T-47D breast; NCI-H23 lung; SF-295 CNS; SW-620 colon; BT-549 breast; MDA-MB-435; SN12C renal; HOP-92 NSCLC.
What all share (assay): inhibition of tumour cell growth, NCI panel, 48 h

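Growth conditions: 96-well plates. Treatment: test compound, 48 hours, 5 concentrations. Analysis: linear interpolation between bracketing concentrations; unreached endpoints set to highest concentration. Definition used: TGI = concentration required for complete inhibition of growth.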

On to `CCCn1c(CN(Cc2nc3ccccc3n2CCC)Cc2nc3ccccc3n2CCC)nc2ccccc21`, for which the TGI in the assay on MDA-N is 25.1 µM; in the assay on T-47D breast, 28.6 µM; in the assay on NCI-H23 lung, more than 49.6 µM; with SF-295 CNS, 30.7 µM; in the assay with SW-620 colon, more than 100 µM; in the assay on BT-549 breast it was more than 58.4 µM. In addition, the values for the TGI with MDA-MB-435, in the assay on SN12C renal and with HOP-92 NSCLC were 15.3 µM, 6.81 µM and 13.3 µM, respectively.
In the case of `O=P(c1ccccc1)(c1ccccc1)N1O[C@@H](c2ccccc2)C=C[C@H]1c1ccccc1`, the TGI in the assay on MDA-N is 12.7 µM; in the assay on T-47D breast, 20 µM; with NCI-H23 lung it was 25.2 µM; with SF-295 CNS it was 28.7 µM; with SW-620 colon it was 31.8 µM; in the assay on BT-549 breast, 32.4 µM. Further, the TGI was determined as 18.7 µM in the assay with MDA-MB-435, 17.5 µM in the assay on SN12C renal and 25.6 µM in the assay with HOP-92 NSCLC.
On to `O=c1cc(N=P(c2ccccc2)(c2ccccc2)c2ccccc2)n(-c2ccccc2)c(=O)n1-c1ccccc1`, for which the TGI was 43.7 µM with MDA-N; 55.2 µM with T-47D breast; 32 µM in the assay with NCI-H23 lung; 85.8 µM in the assay on SF-295 CNS; more than 100 µM in the assay with SW-620 colon; 95.6 µM in the assay on BT-549 breast. In addition, the TGI in the assay with MDA-MB-435 was 57.2 µM; in the assay with SN12C renal it was 75.3 µM; with HOP-92 NSCLC, 47.5 µM.
In the case of `CN(C)CCCN1C(=S)N(CCCN(C)C)c2c3cc(O)ccc3nc3c([N+](=O)[O-])ccc1c23`, the TGI in the assay on MDA-N was 34.9 µM; with T-47D breast it was 9.48 µM; in the assay with NCI-H23 lung, 17.1 µM; in the assay on SF-295 CNS it was 19 µM; in the assay on SW-620 colon, more than 42 µM; in the assay with BT-549 breast, 28 µM. For the same compound, the TGI was determined as 15.3 µM in the assay with MDA-MB-435, 36.1 µM in the assay with SN12C renal and 16.1 µM in the assay with HOP-92 NSCLC.
With `CC(C)(C)NC(=O)/C(=C\Sc1ccccc1)c1ccc2c(c1)OCO2`, the TGI is 59.8 µM with MDA-N; more than 100 µM in the assay with T-47D breast; more than 100 µM in the assay with NCI-H23 lung; more than 100 µM in the assay with SF-295 CNS; more than 100 µM with SW-620 colon; more than 100 µM in the assay with BT-549 breast. In addition, the TGI is 47.7 µM in the assay with MDA-MB-435, 84.2 µM in the assay on SN12C renal and 55.1 µM in the assay with HOP-92 NSCLC.
Consider `CC1CC[C@@]2(OC1)OC1C[C@H]3[C@@H]4CC[C@H]5CC(OC6OC(CO)C(OC7OC(CO)C(O)C(O)C7OC7OC(CO)C(O)C(O)C7O)C(O)C6O)CCC5(C)[C@H]4CCC3(C)C1[C@@H]2C` (some centres undefined), for which the TGI was found to be 9.31 µM in the assay with MDA-N; 8.51 µM in the assay on T-47D breast; 10.7 µM with NCI-H23 lung; 11 µM in the assay with SF-295 CNS; 1.94 µM in the assay with SW-620 colon; 3.62 µM in the assay on BT-549 breast. Also, the TGI in the assay with MDA-MB-435 was found to be 9.7 µM; in the assay with SN12C renal, 7.42 µM; in the assay on HOP-92 NSCLC it was 11.8 µM.
Consider `O=C1/C(=C\c2cccc(Oc3ccccc3)c2)S(=O)(=O)C(c2ccccc2)N1Cc1ccccc1` (centres undefined), for which the TGI was 95.5 µM in the assay on MDA-N; more than 100 µM in the assay on T-47D breast; more than 100 µM with NCI-H23 lung; more than 100 µM in the assay on SF-295 CNS; more than 100 µM with SW-620 colon; 98.6 µM in the assay on BT-549 breast. For the same compound, the TGI in the assay on MDA-MB-435 came out at 96.5 µM; in the assay with SN12C renal, 58.6 µM; in the assay on HOP-92 NSCLC, 73.3 µM.
In the case of `c1ccc2sc(SCSc3nc4ccccc4s3)nc2c1`, the TGI in the assay on MDA-N, with T-47D breast, with NCI-H23 lung, with SF-295 CNS, with SW-620 colon and with BT-549 breast was more than 100 µM in each case. Moreover, the TGI with MDA-MB-435, in the assay on SN12C renal and in the assay on HOP-92 NSCLC was more than 100 µM each time.
Regarding `CC(C)COP(=O)(OCC(C)C)C(NS(=O)(=O)c1ccccc1)(C(F)(F)F)C(F)(F)F`, the TGI amounted to 20.6 µM in the assay on MDA-N; 9.34 µM in the assay with T-47D breast; 14.2 µM in the assay on NCI-H23 lung; 37 µM with SF-295 CNS; 41.6 µM in the assay on SW-620 colon; 19.6 µM with BT-549 breast. Further, the values for the TGI with MDA-MB-435, in the assay on SN12C renal and with HOP-92 NSCLC were 22.3 µM, 18.8 µM and 7.64 µM, respectively.
Consider `Clc1ccc(-c2nn3c(-c4ccncc4)nnc3s2)cc1`, for which the TGI with MDA-N, in the assay with T-47D breast, in the assay on NCI-H23 lung, in the assay on SF-295 CNS, with SW-620 colon and with BT-549 breast was more than 100 µM in each case. The TGI in the assay with MDA-MB-435, in the assay on SN12C renal and in the assay with HOP-92 NSCLC was more than 100 µM each time.
As for `Oc1ccccc1/C=N/c1nc2cc3sc(/N=C/c4ccccc4O)nc3cc2s1`, the TGI in the assay on MDA-N, in the assay on T-47D breast, in the assay with NCI-H23 lung, in the assay on SF-295 CNS, with SW-620 colon and in the assay on BT-549 breast was more than 100 µM in each case. The TGI in the assay with MDA-MB-435, with SN12C renal and in the assay with HOP-92 NSCLC was more than 100 µM in each case.
